Source: patent US20130224754A1, “METHOD FOR THE SELECTION OF COMPOUNDS USEFUL FOR THE TREATMENT OF PSYCHIATRIC AND NEURODEGENERATIVE DISEASES” (UNIVERSITA' DEGLI STUDI DI TRIESTE, priority 2010, published 2013)
Blank lines part the entries; values can stand above or below the molecule they belong to.

Assays:
[1] = system: pN1-exon6-Fluc-3′UTR long construct; experiment: Inhibition of KCl-induced translation of the ex6-Fluc-3′UTRlong construct; assay type: cell-based, rat; conditions: for prevention of KCl-induced increase in translation of pN1-exon6-Fluc-3′UTR long: 30 min pre-treatment prior 3 h 20 mM KCl, rapamycin 20 nM, U0126 50 μM, KN62 20 μM, GF 50 nM, Aurora A inhibitor 10 μM, PP2 20 μM
Description: The present invention can be used not only to identify compounds able to increase BDNF translation, but also to screen for potential inhibitors of BDNF protein production. To this aim a series of vectors were constructed which recapitulate the physiological regulation of BDNF translation in that the firefly luciferase gene was flanked both by 5′UTR regions as well as 3′UTR. These constructs included:
Inhibitors of 5′UTR regulation are: rapamycin (rap)=mTOR inhibitor (Takei, Inamura et al. 2004); U0126=MEK inhibitor (Kanhema, Dagestad et al. 2006); GF=PKC inhibitor (Heikkila, Jalava et al. 1993).
Inhibitors of 3′UTR regulation: KN62=CaMKII inhibitor (Lu, Hidaka et al. 1996); AuA=Aurora A inhibitor (Soncini, Carpinelli et al. 2006) and PP2=Src tyrosine kinase inhibitor (Perkinton, Sihra et al. 1999).
Aurora kinase A inhibitor (PHA-680632) was a gift from Nerviano Medical Sciences S.r.l. (Milan, Italy); PP2 (1-tert-butyl-3-(4-chlorophenyl)-1H-pyrazolo[3-4]pyrimidin-4-amine), rapamycin was purchased from Ascent Scientific (Bristol, UK), Bisindolylmaleimide I (2-[1-(3-dimethylaminopropyl)-1H-indol-3-yl]-3-(1H-indol-3yl)-maleimide, GF 109203X, Gö 6850), KN62 (1-[N,O-bis-5-isoquinolinesulfonyl)-N-methyl-L-tyrosyl]-4-phenylpiperazine), U0126 (1,4-diamino-2,3-dicyano-1,4-bis(2-aminophenylthio)butadiene), and U0124 (1,4-Diamino-2,3-dicyano-1,4-bis(methylthio)butadiene) from Calbiochem (Damstadt, Germany).
Relative luciferase units (RLU) describe in absolute values for the Fluc/Rluc (F/R) ratio obtained from each condition—basal, 3 h of 20 mM KCl, 30 min of treatment—rapamycin 20 nM, U0126 50 μM, KN62 20 μM, GF 50 nM, Aurora A inhibitor 10 μM or PP2 20 μM, prior 3 h of depolarization. A value of 1.0 was assumed for the basal condition. The represented data (mean+standard error) corresponds to three independent experiments in quadruplicate ***, P<0.001; **, P<0.01; *, P<0.05, One Way Anova followed by a multiple comparison versus Fluc construct procedure with Holm-Sidak's method.

rat BDNF 5′UTR exon 4 = experiment: Dual luciferase assay, pN1-exon4-Fluc in SH-SY5Y cells; assay type: cell-based; conditions: undifferentiated SH-SY5Y; KCL 50 mM, BDNF 50 ng/ml, GLU 20 μM, NE 50 μM, 5-HT 50 μM
Method: (§3) Plasmids were transfected into SH-SY5Y cells using lipofectamine 2000 (Invitrogen) to obtain a transient transfection. The relative quantity of DNA to lipofectamine has been determined and the optimal ratio was found at 0.2 μg of DNA and 0.5 μl of lipofectamine for each well of a 96 multiwell plate. At the time of transfection SH-SY5Y cells were around 70-75% of confluency. According to the Promega protocol for luciferase activity measurements, each construct-containing Fluc was transfected together with the normalizing Rluc construct with a 10:1 ratio (0.2 μg Fluc containing vector together with 0.02 μg of pN1-Rluc vector). The DNA (0.2 μg) was mixed with 25 μl of native MEM medium and incubated for 5 minutes at room temperature. The two solutions were then mixed and incubated for 20 minutes at room temperature to allow the formation of DNA-containing micelles. Then, 50 μl of such solution were added in each well to cells and incubated for 24 h at 37° C. After 24 h transfection, the medium was removed and replaced with fresh culture medium.
(§4) To determine the effects of receptors activation on translation controlled by the different BDNF 5′UTR sequences, cells were treated for 3 hours with 50 mM KCl to induce generalized cell depolarization.
(§5) Luciferase assay was performed according to the manufacturer's instructions (Promega). At the time of luciferase assay, the growth medium was removed from the cultured cells and a sufficient volume of PBS 1× was applied to wash the surface of the culture vessel. Then, the PBS 1× solution was completely removed and the cells lysis was started by adding 20 μl of PLB (passive lysis buffer) into each well. After adding the PLB solution, the culture plate was placed on an orbital shaker with gentle shaking at room temperature for 15 minutes to cover uniformly the cell monolayer with PLB. After lysis, 100 μl of Luciferase Assay Reagent II (LARII) were dispensed in each well and Firefly luciferase activity was measured using the Glo Max Multi luminometer with two injectors (Promega Corporation).
(§6) After quantifying the Firefly luminescence, this reaction was quenched and simultaneously, the Renilla luciferase reaction was initiated by adding 100 μl Stop & Glo Reagent (Promega) to the same well. Then, Renilla luciferase activity was measured using the Glo Max Multi luminometer with two injectors (Promega Corporation).
(§7) One day prior transfection, undifferentiated neuro-blastoma SH-SY5Y cells were seeded into a 96-well white plate with clear bottom (PBI International) at a confluency of 50-60% and cultured overnight. Plasmids containing the different BDNF 5′UTR exons were then transiently transfected into SH-SY5Y cells using Lipofectamine™ 2000 (Invitrogen) at high cell density (70-75%), according to the manufacturer's protocol. […]

rat BDNF 5′UTR exon 1 = experiment: Dual luciferase assay, pN1-exon1-Fluc in SH-SY5Y cells; assay type: cell-based; conditions: undifferentiated SH-SY5Y, 24 h after transfection; KCL 50 mM, BDNF 50 ng/ml, GLU 20 μM, NE 50 μM
Method: as §3, §4, §5, §6, §7

rat BDNF 5′UTR exon 2B = experiment: Dual luciferase assay, pN1-exon2B-Fluc in SH-SY5Y cells; assay type: cell-based; conditions: undifferentiated SH-SY5Y, 24 h after transfection; KCL 50 mM, BDNF 50 ng/ml, GLU 20 μM, NE 50 μM
Method: as §3, §4, §5, §6, §7

BDNF 3′UTR-long = experiment: Luciferase assay, pN1-Fluc-3′long in SH-SY5Y cells; assay type: cell-based, rat; conditions: transfected SHSY-5Y; KCl 50 mM, GLU 20 μM, DHPG 50 μM, AMPA 30 μM, NMDA 30 μM, AcH 30 μM, NE 50 μM, DOPA 40 μM, 5-HT 50 μM, BDNF 50 ng/μl
Method: (§1) Basal and drug-induced translation of a luciferase reporter gene driven by BDNF short and long 3′UTR or coding region (CDS) sequences were measured.
(§2) BDNF ([…]) was specifically employed for the stimulation of the 3′UTR long containing plasmid and NT3 ([…]) for 3′UTR short containing plasmid.

rat BDNF 5′UTR exon 3 = experiment: Dual luciferase assay, pN1-exon3-Fluc in SH-SY5Y cells; assay type: cell-based; conditions: undifferentiated SH-SY5Y; KCL 50 mM
Method: (§8) Plasmids were transfected into SH-SY5Y cells using lipofectamine 2000 (Invitrogen) to obtain a transient transfection. The relative quantity of DNA to lipofectamine has been determined and the optimal ratio was found at 0.2 μg of DNA and 0.5 μl of lipofectamine for each well of a 96 multiwell plate. At the time of transfection SH-SY5Y cells were around 70-75% of confluency. According to the Promega protocol for luciferase activity measurements, each construct-containing Fluc was transfected together with the normalizing Rluc construct with a 10:1 ratio (0.2 μg Fluc containing vector together with 0.02 μg of pN1-Rluc vector). The DNA (0.2 μg) was mixed with 25 μl of native MEM medium and incubated for 5 minutes at room temperature. […]
(§9) Luciferase assay was performed according to the manufacturer's instructions (Promega). […] After lysis, 100 μl of Luciferase Assay Reagent II (LARII) were dispensed in each well and Firefly luciferase activity was measured using the Glo Max Multi luminometer with two injectors (Promega Corporation).
(§10) After quantifying the Firefly luminescence, this reaction was quenched and simultaneously, the Renilla luciferase reaction was initiated by adding 100 μl Stop & Glo Reagent (Promega) to the same well. Then, Renilla luciferase activity was measured using the Glo Max Multi luminometer with two injectors (Promega Corporation). […]

[2] = system: SH-SY5Y human neuroblastoma cells; experiment: MTT viability assay; assay type: cell-based; conditions: 3 h; ACh 10 μM, NE 50 uM, DOPA 40 μM, BDNF and NT3 both 50 ng/ml
Method: Using a 96-well plate 100 μl of SHSY-5Y cells were distributed per well, maintaining them overnight at 37° C. in a 5% CO2-humified incubator. […] After that, 20 μl of aseptically prepared 5 mg/mL MTT was added, adding it also to an additional quadruplicate of wells without cells, as an internal control. The cells were again incubated at 37° C. this time for 2 h, allowing the formation of formazan crystals by the mitochondrial dehydrogenase of viable cells. Afterwards, the media was carefully removed, and the formazan crystals were solubilised by adding 200 μl of MTT solvent per well, a solution that contains acidified isopropanol (4 mM HCl and 0.1% Nondet P-40 in isopropanol). The crystals were further dissolved by gently pipetting the solution up and down being the resulting purple solution spectrophotometrically measured at 570 nm. An increased absorbance can therefore be directly correlated to the cell number, allowing one to determine the cellular viability after a specific treatment. Since the method is dependent on the physiological state of the cells, the assay was always performed after checking the cellular morphology prior treatment. Moreover, two controls were performed: (1) untreated cells, an internal control to verify the drug-dependent effect; and (2) KCl 200 mM treated cells, in which a cytotoxic concentration was used, thus allowing us to verify the assay fidelity.

rat BDNF 5′UTR exon 2C = experiment: Dual luciferase assay, pN1-exon2C-Fluc in SH-SY5Y cells; assay type: cell-based; conditions: undifferentiated SH-SY5Y; GLU 20 μM, NMDA 30 μM, NE 50 μM
Method: as §3, §4
Luciferase assay was performed according to the manufacturer's instructions (Promega). At the time of luciferase assay, the growth medium was removed from the cultured cells and a sufficient volume of PBS 1× was applied to wash the surface of the culture vessel. […] After lysis, 100 μl of Luciferase Assay Reagent II (LARII) were dispensed in each well and Firefly luciferase activity was measured using the Glo Max Multi luminometer with two injectors (Promega Corporation).
as §10

rat BDNF 5′UTR exon 7 = experiment: Dual luciferase assay, pN1-exon7-Fluc in SH-SY5Y cells; assay type: cell-based; conditions: undifferentiated SH-SY5Y; NE 50 μM
Method: as §8, §9, §10

[3] = system: BDNF 5′UTR splice variants; experiment: Dual luciferase assay, response of BDNF 5′UTR splice variants to agonists (collective statements); conditions: undifferentiated SH-SY5Y; for translation of the other BDNF transcripts (other than exon2C): DHPG 50 μM, AMPA 30 μM, NMDA 30 μM
Method: as §3, §4, §5, §6, §7

rat BDNF 5′UTR exon 8 = experiment: Dual luciferase assay, pN1-exon8-Fluc in SH-SY5Y cells; assay type: cell-based; conditions: undifferentiated SH-SY5Y; BDNF 50 ng/ml, GLU 20 μM, 5-HT 50 μM
Method: as §8, §9, §10

BDNF 3′UTR-short = experiment: Luciferase assay, pN1-Fluc-3′short in SH-SY5Y cells; assay type: cell-based, rat; conditions: transfected SHSY-5Y; GLU 20 μM
Method: as §1, §2

Molecule: CN(C)CCCn1cc(C2=C(c3c[nH]c4ccccc34)C(=O)NC2=O)c2ccccc21 [GF, 2-[1-(3-dimethylaminopropyl)-1H-indol-3-yl]-3-(1H-indol-3yl)-maleimide]
prevention of KCl-induced increase in translation of pN1-exon6-Fluc-3′UTR long [1]: not

Molecule: [Cl-].[K+] [KCl]
translation of exon 4-containing transcripts (ratio F-luc/R-Luc) (rat BDNF 5′UTR exon 4): significantly increase
translation of exon1-containing transcripts (ratio F-luc/R-Luc) (rat BDNF 5′UTR exon 1): significantly increase
increase in translation of pN1-exon6-Fluc-3′UTR long (Fluc/Rluc ratio, basal = 1.0) ([1]; end of 3 h depolarization with 20 mM KCl): three-fold increase
translation of exon 2B-containing transcripts (ratio F-luc/R-Luc) (rat BDNF 5′UTR exon 2B): significantly increase
translation of 3′UTR-long-containing transcripts (BDNF 3′UTR-long): slightly but not significant increase
expression of exon 3-containing plasmid (ratio F-luc/R-Luc) (rat BDNF 5′UTR exon 3): induced

Molecule: CC(C)(C)n1nc(-c2ccc(Cl)cc2)c2c(N)ncnc21 [PP2, 1-tert-butyl-3-(4-chlorophenyl)-1H-pyrazolo[3-4]pyrimidin-4-amine]
prevention of KCl-induced increase in translation of pN1-exon6-Fluc-3′UTR long [1]: completely prevents

Molecule: N#CC(=C(N)Sc1ccccc1N)C(C#N)=C(N)Sc1ccccc1N [U0126, 1,4-diamino-2,3-dicyano-1,4-bis(2-aminophenylthio)butadiene]
prevention of KCl-induced increase in translation of pN1-exon6-Fluc-3′UTR long [1]: completely prevents

Molecule: NC[C@H](O)c1ccc(O)c(O)c1 [Norepinephrine]
translation of exon 4-containing transcripts (ratio F-luc/R-Luc) (rat BDNF 5′UTR exon 4): significantly increase
translation of exon1-containing transcripts (ratio F-luc/R-Luc) (rat BDNF 5′UTR exon 1): significantly increase
cell survival (MTT viability), neurotrophic effect [2]: small increase in cell survival
expression of exon 2C containing plasmid (ratio F-luc/R-Luc) (rat BDNF 5′UTR exon 2C): increased
exon7 reporter expression (ratio F-luc/R-Luc) (rat BDNF 5′UTR exon 7): increased
translation of exon 2B-containing transcripts (ratio F-luc/R-Luc) (rat BDNF 5′UTR exon 2B): significantly increase

Molecule: CN[C@H](CC(=O)O)C(=O)O [NMDA]
translation of the other BDNF transcripts (other than exon2C) [3]: not stimulated
expression of exon 2C containing plasmid (ratio F-luc/R-Luc) (rat BDNF 5′UTR exon 2C): enhancement

Molecule: CCc1cccc(CC)c1NC(=O)N1Cc2n[nH]c(NC(=O)c3ccc(N4CCN(C)CC4)cc3)c2C1 [Aurora A inhibitor, PHA-680632]
prevention of KCl-induced increase in translation of pN1-exon6-Fluc-3′UTR long [1]: completely prevents

Molecule: NCCc1ccc(O)c(O)c1 [Dopamine]
cell survival (MTT viability), neurotrophic effect [2]: small increase in cell survival

Molecule: N[C@@H](CCC(=O)O)C(=O)O [Glutamate, Glutammate]
translation of exon 4-containing transcripts (ratio F-luc/R-Luc) (rat BDNF 5′UTR exon 4): significantly increase
translation of exon1-containing transcripts (ratio F-luc/R-Luc) (rat BDNF 5′UTR exon 1): significantly increase
expression of exon 2C containing plasmid (ratio F-luc/R-Luc) (rat BDNF 5′UTR exon 2C): able to induce the expression
response of exon 8-containing plasmid (ratio F-luc/R-Luc) (rat BDNF 5′UTR exon 8): responsive
translation of 3′UTR-short-containing transcripts (BDNF 3′UTR-short): striking increase
translation of exon 2B-containing transcripts (ratio F-luc/R-Luc) (rat BDNF 5′UTR exon 2B): significantly increase

Molecule: Cc1o[nH]c(=O)c1CC(N)C(=O)O (centres unmarked) [AMPA]
translation of the other BDNF transcripts (other than exon2C) [3]: not stimulated

Molecule: CN([C@@H](Cc1ccc(OS(=O)(=O)c2cccc3cnccc23)cc1)C(=O)N1CCN(c2ccccc2)CC1)S(=O)(=O)c1cccc2cnccc12 [KN62]
prevention of KCl-induced increase in translation of pN1-exon6-Fluc-3′UTR long [1]: completely prevents

translation of the other BDNF transcripts (other than exon2C) [3]: not stimulated
Molecule: N[C@H](C(=O)O)c1cc(O)cc(O)c1 [DHPG]

translation of every BDNF exons-containing plasmid, with the exception of those containing exon 2A, 4 and 8 ([3]; 5-HT 50 μM): able to increase the translation
Molecule: NCCc1c[nH]c2ccc(O)cc12 [Serotonin]

B1: Brain-derived neurotrophic factor (protein, UniProt P23560 19-247, looked up)
Neurotrophic factor BDNF …: APMKEANIRGQGGLAYPGVRTHGTLESVNGPKAGSRGLTSLADTFEHVIEELLDEDQKVRPNEENNKDADLYTSRVMLSSQVPLEPPLLFLLEEYKNYLDAANMSMRVRRHSDPARRGELSVCDSISEWVTAADKKTAVDMSGGTVTVLEKVPVSKGQLKQYFYETKCNPMGYTKEGCRGIDKRHWNSQCRTTQSYVRALTMDSKKRIGWRFIRIDTSCVCTLTIKRGR
notes: growth and trophic factor of the neurotrophin family, used as agonist at 50 ng/ml
translation of exon 4-containing transcripts (ratio F-luc/R-Luc) (rat BDNF 5′UTR exon 4): significantly increase
translation of exon1-containing transcripts (ratio F-luc/R-Luc) (rat BDNF 5′UTR exon 1): significantly increase
cell survival (MTT viability), neurotrophic effect [2]: small increase in cell survival
response of exon 8-containing plasmid (ratio F-luc/R-Luc) (rat BDNF 5′UTR exon 8): responsive
translation of exon 2B-containing transcripts (ratio F-luc/R-Luc) (rat BDNF 5′UTR exon 2B): significantly increase

B2: Neurotrophin-3 (protein, UniProt P20783 139-257, looked up)
Neurotrophin-3: YAEHKSHRGEYSVCDSESLWVTDKSSAIDIRGHQVTVLGEIKTGNSPVKQYFYETRCKEARPVKNGCRGIDDKHWNSQCKTSQTYVRALTSENNKLVGWRWIRIDTSCVCALSRKIGRT
notes: neurotrophin, used at 50 ng/ml
cell survival (MTT viability), neurotrophic effect [2]: small increase in cell survival
